This is an account of results in patent publication US10399988B2, “4-aminopyrazolo[3,4-d]pyrimidinylazabicyclo derivatives and pharmaceutical composition comprising the same” (Daewoong Pharmaceutical Co., Ltd., priority 2016, dated 2019).

One test deals with T1, ITK (Homo sapiens, UniProt Q08881).
T1 construct: purchased Promega Corporation
T1 sequence (Q08881 1-620): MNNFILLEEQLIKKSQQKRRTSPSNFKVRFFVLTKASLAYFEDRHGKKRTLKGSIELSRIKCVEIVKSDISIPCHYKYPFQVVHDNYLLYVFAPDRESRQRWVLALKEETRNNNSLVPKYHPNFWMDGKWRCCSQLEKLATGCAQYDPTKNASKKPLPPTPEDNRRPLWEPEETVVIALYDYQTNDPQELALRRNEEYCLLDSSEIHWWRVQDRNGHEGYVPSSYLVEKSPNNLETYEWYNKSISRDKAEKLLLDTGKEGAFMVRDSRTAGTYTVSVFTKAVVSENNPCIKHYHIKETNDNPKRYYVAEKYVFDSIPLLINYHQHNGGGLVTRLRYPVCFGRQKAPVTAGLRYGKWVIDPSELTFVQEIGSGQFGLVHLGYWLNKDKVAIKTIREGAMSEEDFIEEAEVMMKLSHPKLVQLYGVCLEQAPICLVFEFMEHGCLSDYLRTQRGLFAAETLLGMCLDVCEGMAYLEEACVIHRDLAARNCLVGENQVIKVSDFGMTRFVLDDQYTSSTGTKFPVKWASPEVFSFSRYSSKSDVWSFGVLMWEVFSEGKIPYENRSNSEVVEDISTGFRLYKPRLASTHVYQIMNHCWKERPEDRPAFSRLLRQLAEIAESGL
Kind of test: Inhibitory activity against ITK (ADP-Glo + ITK Kinase enzyme system kit); selectivity BTK vs. ITK. The note with it: for IC50: ITK enzyme 0.4 ng/uL, ATP 25 uM, luminescence, duplicate; for Selectivity (based on IC50): selectivity for the inhibitory activity of BTK vs. ITK, Equation 1. Format: biochemical.

The next test addresses BTK (Homo sapiens, UniProt Q06187). Kind of test: Inhibitory activity against BTK (ADP-Glo + BTK Kinase enzyme system kit). Background: In ADP-Glo the light output rises with the ADP produced.

Sequence of BTK (Q06187 whole entry): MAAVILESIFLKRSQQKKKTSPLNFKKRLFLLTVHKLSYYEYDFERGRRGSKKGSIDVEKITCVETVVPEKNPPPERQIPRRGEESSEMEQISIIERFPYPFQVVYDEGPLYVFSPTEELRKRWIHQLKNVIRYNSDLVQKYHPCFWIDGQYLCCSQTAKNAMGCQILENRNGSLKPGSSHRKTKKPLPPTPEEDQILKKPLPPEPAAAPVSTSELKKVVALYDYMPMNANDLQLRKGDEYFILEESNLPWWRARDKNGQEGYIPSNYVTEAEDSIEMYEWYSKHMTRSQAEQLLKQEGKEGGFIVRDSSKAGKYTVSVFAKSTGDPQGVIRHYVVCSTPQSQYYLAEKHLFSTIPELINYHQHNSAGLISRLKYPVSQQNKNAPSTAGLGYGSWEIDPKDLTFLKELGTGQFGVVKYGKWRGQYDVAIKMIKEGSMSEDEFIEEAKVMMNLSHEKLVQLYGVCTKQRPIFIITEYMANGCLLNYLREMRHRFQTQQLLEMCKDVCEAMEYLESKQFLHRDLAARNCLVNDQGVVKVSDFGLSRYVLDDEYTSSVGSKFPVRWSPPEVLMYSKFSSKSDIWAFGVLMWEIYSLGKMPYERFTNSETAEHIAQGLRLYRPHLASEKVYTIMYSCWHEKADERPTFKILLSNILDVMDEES

A word on the IC50: it is the concentration that inhibits the measured activity by half. In the case of `C=CC(=O)N1CC2CC1C(n1nc(-c3ccc(C(=O)Nc4ccccn4)cc3)c3c(N)ncnc31)C2` (stereo not drawn) [Ex. 49, 4-(1-(2-acryloyl-2-azabicyclo[2.2.1]heptan-6-yl)-4-amino-1H-pyrazolo[3,4-d]pyrimidin-3-yl)-N-(pyridin-2-yl)benzamide], on ITK, the IC50 was greater than 500 nM and the “Selectivity (based on IC50)” value is given as greater than 142.9. For the same molecule, on BTK, the half-maximal inhibitory concentration (IC50) amounted to 3.5 nM.
As to `C#CC(=O)N1CC2CC1C(n1nc(-c3ccc(C(=O)Nc4ccccn4)cc3)c3c(N)ncnc31)C2` (stereo not drawn) [Ex. 4, 4-(4-amino-1-(2-propioloyl-2-azabicyclo[2.2.1]heptan-6-yl)-1H-pyrazolo[3,4-d]pyrimidin-3-yl)-N-(pyridin-2-yl)benzamide], at ITK, the concentration for half-maximal inhibition (IC50) stood at 104 nM and the “Selectivity (based on IC50)” value is recorded as 37.1. Moreover, at BTK, the 50% inhibitory concentration (IC50) worked out at 2.8 nM.
On to `C=CC(=O)N1CC2CC1C(n1nc(-c3ccc(Oc4ccccc4)cc3)c3c(N)ncnc31)C2` (stereo not drawn) [Ex. 1, 1-(6-(4-amino-3-(4-phenoxyphenyl)-1H-pyrazolo[3,4-d]pyrimidin-1-yl)-2-azabicyclo[2.2.1]heptan-2-yl)prop-2-en-1-one], for which, on ITK, the IC50 was 189 nM and the “Selectivity (based on IC50)” value is given as 89.9. On BTK, the half-maximal inhibitory concentration (IC50) is 2.1 nM.
For `C=CC(=O)N1CC2CC1C(n1nc(-c3ccc(Oc4ccccc4)cc3F)c3c(N)ncnc31)C2` (stereo not drawn) [Ex. 35, 1-(6-(4-amino-3-(2-fluoro-4-phenoxyphenyl)-1H-pyrazolo[3,4-d]pyrimidin-1-yl)-2-azabicyclo[2.2.1]heptan-2-yl)prop-2-en-1-one] the same measures were 132 nM, 60.0 and 2.2 nM.
For `C=CC(=O)N1C[C@@H]2C[C@H]1[C@@H](n1nc(-c3ccc(C(=O)Nc4ccccn4)cc3Cl)c3c(N)ncnc31)C2` [Ex. 80, 4-(1-((1S,4R,6S)-2-acryloyl-2-azabicyclo[2.2.1]heptan-6-yl)-4-amino-1H-pyrazolo[3,4-d]pyrimidin-3-yl)-3-chloro-N-(pyridin-2-yl)benzamide] the same measures were 32.1 nM, 26.8 and 1.2 nM.
With `C=CC(=O)N1CC2CC1C(n1nc(-c3ccc(S(=O)(=O)c4ccccc4)cc3)c3c(N)ncnc31)C2` (stereo not drawn) [Ex. 32, 1-(6-(4-amino-3-(4-(phenylsulfonyl)phenyl)-1H-pyrazolo[3,4-d]pyrimidin-1-yl)-2-azabicyclo[2.2.1]heptan-2-yl)prop-2-en-1-one], the concentration for half-maximal inhibition (IC50) is greater than 1000 nM on ITK and 4 nM on BTK. For the same molecule, the “Selectivity (based on IC50)” value at ITK is given as greater than 250.
For `N#CC(=CC1CC1)C(=O)N1C[C@@H]2C[C@@H]1[C@@H](n1nc(-c3ccc(C(=O)Nc4ccccn4)cc3F)c3c(N)ncnc31)C2` [Ex. 82, 4-(4-amino-1-((1R,4R,6S)-2-(2-cyano-3-cyclopropylacryloyl)-2-azabicyclo[2.2.1]heptan-6-yl)-1H-pyrazolo[3,4-d]pyrimidin-3-yl)-3-fluoro-N-(pyridin-2-yl)benzamide] the same measures were greater than 200 nM, 3.6 nM and 55.6.
For `C=CC(=O)N1CC2CC1C(n1nc(-c3ccc(C(=O)Nc4cc(F)ccn4)cc3)c3c(N)ncnc31)C2` (stereo not drawn) [Ex. 67, 4-(1-(2-acryloyl-2-azabicyclo[2.2.1]heptan-6-yl)-4-amino-1H-pyrazolo[3,4-d]pyrimidin-3-yl)-N-(4-fluoropyridin-2-yl)benzamide], on ITK, the IC50 is 54.1 nM and the “Selectivity (based on IC50)” value is 108.2. The IC50 at BTK stood at 0.5 nM.
For `C=CC(=O)N1C[C@@H]2C[C@@H]1[C@@H](n1nc(-c3ccc(C(=O)Nc4ccccn4)cc3F)c3c(N)ncnc31)C2` [Ex. 85, 4-(1-((1R,4R,6S)-2-acryloyl-2-azabicyclo[2.2.1]heptan-6-yl)-4-amino-1H-pyrazolo[3,4-d]pyrimidin-3-yl)-3-fluoro-N-(pyridin-2-yl)benzamide] the same measures were 60.6 nM, 37.9 and 1.6 nM.
As for `C=CC(=O)N1C[C@@H]2C[C@@H]1[C@@H](n1nc(-c3ccc(C(=O)Nc4ccccn4)cc3)c3c(N)ncnc31)C2` [Ex. 69, 4-(1-((1R,4R,6S)-2-acryloyl-2-azabicyclo[2.2.1]heptan-6-yl)-4-amino-1H-pyrazolo[3,4-d]pyrimidin-3-yl)-N-(pyridin-2-yl)benzamide], at ITK, the IC50 was 235 nM and the “Selectivity (based on IC50)” value came to 181.2. Moreover, the half-maximal inhibitory concentration (IC50) on BTK is 1.3 nM.
